Experimental data from publication PMC10743451, “Addressing the Binding Mechanism of the Meprin and TRAF-C Homology Domain of the Speckle-Type POZ Protein Using Protein Engineering” (International Journal of Molecular Sciences, 2023).

System: SPOP MATH domain
Assay: Linear free energy relationship (LFER) analysis of binding to SPOP MATH wildtype and mutant variants
Conditions: LFER over MATH wildtype and mutant variants
From the text: A powerful method used to address the mechanism of binding between ligands is to study the effect of structural perturbation on the transition and ground states. This approach, classically denoted as Leffler or Linear Free Energy Relationship (LFER) analysis, aims at analyzing the correlation of the change in activation free energy to the change in equilibrium free energy; LFER analysis has been used in organic chemistry, protein folding, enzymology, and protein–protein interaction studies to decipher the position of the transition state of a reaction along the reaction coordinates. The analysis of the dependences of the microscopic association and dissociation rate constants over the equilibrium constant of each MATH variant to Puc and MacroH2A are reported in Figure 5.
Figure 5 Linear free energy relationship for the binding of MATH wildtype and mutant variants to the peptides Puc (panels (A,B)) and MacroH2A (panels (C,D)). Panels (A,C) represent the dependences of the microscopic association rate constant kon on the equilibrium dissociation constant. Panels (B,D) represent the dependences of the microscopic dissociation rate constant koff on the equilibrium dissociation constant. The blue and red dots represent the dependences of kon or koff on the equilibrium dissociation constant (KD), respectively.

| Sequence | slope of log koff versus log KD | slope of log kon vs. log KD |
| --- | --- | --- |
| DEVTSTTSSS [Puc] | 0.36 ± 0.09 | −0.64 ± 0.09 |
| KAASADSTTEGTPAD [MacroH2A] | 0.02 ± 0.11 | −0.98 ± 0.11 |
